According to US9371336B2, “Compounds for treating spinal muscular atrophy” (PTC Therapeutics Inc., priority 2012, dated 2016):

Legend:
[1] = tested on: SMN2 minigene mRNA (SMN2-A minigene construct); experiment: SMN2 minigene mRNA splicing RT-qPCR assay in cultured cells; type: cell-based, human; conditions: Homo sapiens, HEK293-H; HEK293H cells stably transfected with SMN2-A minigene, 24 hours, 7-point concentration data; concentration giving 1.5-fold SMN2 full length mRNA relative to vehicle-treated cells; read-out: EC1.5x for production of full length SMN2 mRNA
Protocol: The reverse transcription-quantitative PCR-based (RT-qPCR) assay is used to quantify the level of the full length SMN2 minigene mRNA containing SMN2 exon 7 in a HEK293H cell line stably transfected with said minigene and treated with a test compound.
HEK293H cells stably transfected with the SMN2-A minigene construct described above (10,000 cells/well) are seeded in 200 μL of cell culture medium (DMEM plus 10% FBS, with 200 μg/mL hygromycin) in 96-well flat-bottom plates and the plate is immediately swirled to ensure proper dispersal of cells, forming an even monolayer of cells. Cells are allowed to attach for at least 4-6 hours. Test compounds are serially diluted 3.16-fold in 100% DMSO to generate a 7-point concentration curve. A solution of test compound (1 μL, 200× in DMSO) is added to each cell-containing well and the plate is incubated for 24 hours in a cell culture incubator (37° C., 5% CO2, 100% relative humidity). Two replicates are prepared for each test compound concentration. The cells are then lysed in Cells-To-Ct lysis buffer and the lysate is stored at −80° C.
Primer SMN Forward A (SEQ ID NO. 1) hybridizes to a nucleotide sequence in exon 7 (nucleotide 22 to nucleotide 40), primer SMN Reverse A (SEQ ID NO. 2) hybridizes to a nucleotide sequence in the coding sequence of Firefly luciferase, SMN Probe A (SEQ ID NO. 3) hybridizes to a nucleotide sequence in exon 7 (nucleotide 50 to nucleotide 54) and exon 8 (nucleotide 1 to nucleotide 21). The combination of these three oligonucleotides detects only SMN1 or SMN2 minigenes (RT-qPCR) and will not detect endogenous SMN1 or SMN2 genes.
The SMN forward and reverse primers are used at final concentrations of 0.4 μM. The SMN probe is used at a final concentration of 0.15 μM. The GAPDH primers are used at final concentrations of 0.2 μM and the probe at 0.15 μM.
The SMN2-minigene GAPDH mix (15 μL total volume) is prepared by combining 7.5 μL of 2×RT-PCR buffer, 0.4 μL of 25×RT-PCR enzyme mix, 0.75 μL of 20×GAPDH primer-probe mix, 4.0075 μL of water, 2 μL of 10-fold diluted cell lysate, 0.06 μL of 100 μM SMN forward primer, 0.06 μL of 100 μM SMN reverse primer, and 0.225 μL of 100 μM SMN probe.
PCR is carried out at the following temperatures for the indicated time: Step 1: 48° C. (15 min); Step 2: 95° C. (10 min); Step 3: 95° C. (15 sec); Step 4: 60° C. (1 min); then repeat Steps 3 and 4 for a total of 40 cycles.
Each reaction mixture contains both SMN2-A minigene and GAPDH primers/probe sets (multiplex design), allowing simultaneous measurement of the levels of two transcripts.
Two SMN spliced products are generated from the SMN2 minigene. The first spliced product containing exon 7, corresponding to SMN2 full length mRNA, is referred to herein using the term “SMN2 minigene FL.” The second spliced product lacking exon 7 is referred to herein using the term “SMN2 minigene Δ7.”
The increase of SMN2 minigene FL mRNA relative to that in cells treated with vehicle control is determined from real-time PCR data using a modified ΔΔCt method (as described in Livak and Schmittgen, Methods, 2001, 25:402-8). The amplification efficiency (E) is calculated from the slope of the amplification curve for SMN2 minigene FL and GAPDH individually. The abundances of SMN2 minigene FL and GAPDH are then calculated as (1+E)^−Ct, where Ct is the threshold value for each amplicon. The abundance of SMN2 minigene FL is normalized to GAPDH abundance. The normalized SMN2 minigene FL abundance from test compound-treated samples is then divided by normalized SMN2 minigene FL abundance from vehicle-treated cells to determine the level of SMN2 FL mRNA relative to vehicle control.

[2] = tested on: Smn protein; experiment: Smn protein assay (HTRF) in cultured cells (SMA patient fibroblasts GM03813); type: cell-based, human; conditions: 48 hours; for EC1.5x for Smn protein expression: SMA patient fibroblast cells (GM03813), HTRF, 7-point concentration data, concentration producing 1.5 times Smn protein vs DMSO vehicle control; for maximum fold (Fold) increase of Smn protein: SMA patient fibroblast cells, 7-point concentration curve, relative to vehicle control
Protocol: The Smn HTRF (homogeneous time resolved fluorescence) assay is used to quantify the level of Smn protein in SMA patient fibroblast cells treated with test compounds.
Cells are thawed and cultured in DMEM-10% FBS for 72 hours. Cells are trypsinized, counted and re-suspended to a concentration of 25,000 cells/mL in DMEM-10% FBS. The cell suspension is plated at 5,000 cells per well in a 96 well microtiter plate and incubated for 3 to 5 hours. […] Test compounds are serially diluted 3.16-fold in 100% DMSO to generate a 7-point concentration curve. 1 μL of test compound solution is transferred to cell-containing wells and cells are incubated for 48 hours in a cell culture incubator (37° C., 5% CO2, 100% relative humidity). Triplicate samples are set up for each test compound concentration. After 48 hours, the supernatant is removed from the wells and 25 μL of the RIPA lysis buffer, containing protease inhibitors, is added to the wells and incubated with shaking at room temperature for 1 hour. 25 μL of the diluent is added and then 35 μL of the resulting lysate is transferred to a 384-well plate, where each well contains 5 μL of the antibody solution (1:100 dilution of anti-SMN d2 and anti-SMN kryptate in SMN reconstitution buffer). The plate is centrifuged for 1 minute to bring the solution to the bottom of the wells, then incubated overnight at room temperature. Fluorescence for each well of the plate at 665 nm and 620 nm is measured on an EnVision multilabel plate reader (Perkin-Elmer).
The normalized fluorescence signal is calculated for each sample, Blank and vehicle control well by dividing the signal at 665 nm by the signal at 620 nm. Normalizing the signal accounts for possible fluorescence quenching due to the matrix effect of the lysate. The ΔF value (a measurement of Smn protein abundance as a percent value) for each sample well is calculated by subtracting the normalized average fluorescence for the Blank control wells from the normalized fluorescence for each sample well, then dividing this difference by the normalized average fluorescence for the Blank control wells and multiplying the resulting value by 100. The ΔF value for each sample well represents the Smn protein abundance from test compound-treated samples. The ΔF value for each sample well is divided by the ΔF value for the vehicle control wells to calculate the fold increase in Smn protein abundance relative to the vehicle control.

melting point [°C] | Structure (SMILES) | EC (1.5-fold) [1] [µM] | EC1.5x for Smn protein expression [2] | maximum fold (Fold) increase of Smn protein [2]
258 to 260 | O=c1oc2nc(N3CCNCC3)ccc2cc1-c1nc2ccccc2s1 [Cpd 1, 3-(1,3-benzothiazol-2-yl)-7-(piperazin-1-yl)-2H-pyrano[2,3-b]pyridin-2-one] | 0.1 to 0.3 | *** (an EC1.5× between >0.3 μM and ≦1 μM is indicated by three stars (***)) | *** (a fold increase between >1.35 and ≦1.5 is indicated by three stars (***))
247 to 250 | CN1CCN(c2ccc3cc(-c4nc5ccccc5s4)c(=O)oc3n2)CC1 [Cpd 3, 3-(1,3-benzothiazol-2-yl)-7-(4-methylpiperazin-1-yl)-2H-pyrano[2,3-b]pyridin-2-one] | 0.3 to 1 | * (An EC1.5× for Smn protein expression between >3 μM and ≦10 μM is indicated by one star (*)) | *** (a fold increase between >1.35 and ≦1.5 is indicated by three stars (***))
262 to 266 | O=c1oc2nc(N3CCN(Cc4ccccc4O)CC3)ccc2cc1-c1nc2c(Cl)cccc2s1 [Cpd 6, 3-(4-chloro-1,3-benzothiazol-2-yl)-7-[4-(2-hydroxybenzyl)piperazin-1-yl]-2H-pyrano[2,3-b]pyridin-2-one] | 3 to 30 |  | ** (a fold increase between >1.2 and ≦1.35 is indicated by two stars (**))
266 to 270 | Cl.O=c1oc2cc(N3CCNCC3)ncc2cc1-c1nc2c(Cl)cccc2s1 [Cpd 9, 3-(4-chloro-1,3-benzothiazol-2-yl)-7-(piperazin-1-yl)-2H-pyrano[3,2-c]pyridin-2-one hydrochloride] | 0.1 to 0.3 |  | * (A maximum fold increase ≦1.2 is indicated by one star (*))
258 to 262 | O=c1oc2nc(N3CCN(CCO)CC3)ccc2cc1-c1nc2c(Cl)cccc2s1 [Cpd 10, 3-(4-chloro-1,3-benzothiazol-2-yl)-7-[4-(2-hydroxyethyl)piperazin-1-yl]-2H-pyrano[2,3-b]pyridin-2-one] | 0.3 to 1 | *** (an EC1.5× between >0.3 μM and ≦1 μM is indicated by three stars (***)) | *** (a fold increase between >1.35 and ≦1.5 is indicated by three stars (***))
285 to 288 | CN1CCN(c2cc3oc(=O)c(-c4nc5c(Cl)cccc5s4)cc3cn2)CC1 [Cpd 11, 3-(4-chloro-1,3-benzothiazol-2-yl)-7-(4-methylpiperazin-1-yl)-2H-pyrano[3,2-c]pyridin-2-one] | 0.3 to 1 |  | * (A maximum fold increase ≦1.2 is indicated by one star (*))
266 to 269 | CCN1CCN(c2ccc3cc(-c4nc5c(Cl)cccc5s4)c(=O)oc3n2)CC1 [Cpd 12, 3-(4-chloro-1,3-benzothiazol-2-yl)-7-(4-ethylpiperazin-1-yl)-2H-pyrano[2,3-b]pyridin-2-one] | 0.3 to 1 |  | *** (a fold increase between >1.35 and ≦1.5 is indicated by three stars (***))
 | Cl.O=c1oc2nc(N3CCNCC3)ccc2cc1-c1cn2cccnc2n1 [Cpd 112, 3-(imidazo[1,2-a]pyrimidin-2-yl)-7-(piperazin-1-yl)-2H-pyrano[2,3-b]pyridin-2-one hydrochloride] | 0.1 to 0.3 | ** (an EC1.5× between >1 and ≦3 μM is indicated by two stars (**)) | *** (a fold increase between >1.35 and ≦1.5 is indicated by three stars (***))
 | Cc1ccc2nc(-c3cc4ccc(N5C[C@@H]6C[C@H]5CN6)nc4oc3=O)cn2c1 [Cpd 124, 7-[(1S,4S)-2,5-diazabicyclo[2.2.1]hept-2-yl]-3-(6-methylimidazo[1,2-a]pyridin-2-yl)-2H-pyrano[2,3-b]pyridin-2-one] | 0.1 to 0.3 | *** (an EC1.5× between >0.3 μM and ≦1 μM is indicated by three stars (***)) | **** (a fold increase between >1.5 and ≦1.65 is indicated by four stars (****))
 | Cc1cn2cc(-c3cc4ccc(N5C[C@@H]6C[C@H]5CN6)nc4oc3=O)nc2c(C)n1 [Cpd 135] | ≤ 0.1 | *** (an EC1.5× between >0.3 μM and ≦1 μM is indicated by three stars (***)) | ***** (a fold increase >1.65 is indicated by five stars (*****))
 | Cc1cc(F)c2nc(-c3cc4ccc(N5C[C@@H]6C[C@H]5CN6)nc4oc3=O)cn2c1 [Cpd 136, 7-[(1S,4S)-2,5-diazabicyclo[2.2.1]hept-2-yl]-3-(8-fluoro-6-methylimidazo[1,2-a]pyridin-2-yl)-2H-pyrano[2,3-b]pyridin-2-one] | ≤ 0.1 | *** (an EC1.5× between >0.3 μM and ≦1 μM is indicated by three stars (***)) | *** (a fold increase between >1.35 and ≦1.5 is indicated by three stars (***))
 | Cc1cn2cc(-c3cc4ccc(N5CCN[C@@H](C)C5)nc4oc3=O)nc2c(C)n1 [Cpd 146, 3-(6,8-dimethylimidazo[1,2-a]pyrazin-2-yl)-7-[(3S)-3-methylpiperazin-1-yl]-2H-pyrano[2,3-b]pyridin-2-one] | ≤ 0.1 | **** (an EC1.5×≦0.3 μM is indicated by four stars (****)) | **** (a fold increase between >1.5 and ≦1.65 is indicated by four stars (****))
